Results taken from patent US20260144883A1, “ANTI-TROP2/EGFR ANTIBODIES AND USES THEREOF” (XADCERA BIOPHARMACEUTICAL (SUZHOU) CO., LTD., priority 2022, published 2026).

Assays:
Experiment in all cases: In vitro killing activity (CellCounting-Lite 2.0, 7 days)
Assay type in all cases: cell-based
[1] = system: HCC827 cells; conditions: Homo sapiens, 168 h
[2] = system: NCI-H292 cells; conditions: Homo sapiens, 168 h
[3] = system: A431 cells; conditions: Homo sapiens, A-431, 168 h
[4] = system: Panc 02.03 cells; conditions: Homo sapiens, Panc 02.03, 168 h

**Q.** Which results are given for `CC[C@@]1(O)C(=O)OCc2c1cc1n(c2=O)Cc2c-1nc1ccc(N)c3c1c2CCO3` [CPT2, (S)-4-amino-9-ethyl-9-hydroxy-1,9,12,15-tetrahydro-13H-pyrano[4,3,2-de]pyrano[3′,4′:6,7]indolizino[1,2-b]quinoline-10,13(2H)-dione]?
**A.** IC50 [1]: 1.69 nM; IC50 [2]: 0.728 nM; IC50 [3]: 1.38 nM; IC50 [4]: 0.981 nM
